Experimental data reported in the OligoGym collection.
Where “and” joins values, the source holds several entries; their conditions need not be identical. Equal entries are not always repeated. After the bases stand the sugars from the 5' end (letter, count) and the backbone: PS all phosphorothioate, else s phosphorothioate and o phosphodiester by linkage. Methylation of C is not given here. k = constrained ethyl (cEt); d = 2'-deoxy (DNA)

What follows are sequences tested against MALAT1. Settings: ASO, A431, 0.005 µM.
Work on GGTTACCAATAATTTC (sugars k3 d10 k3, PS) yielded a target mRNA inhibition of 93%. With GGTTTCCTCAAGCTCC (sugars k3 d10 k3, PS) the target mRNA inhibition was 34%. GTAAGAATTAAGACCA (sugars k3 d10 k3, PS) showed a target mRNA inhibition of 37%. GTAAGCCCCACCCCCT (sugars k3 d10 k3, PS) gave a target mRNA inhibition of -35%. Work on GTAGGTATAGTTTACC (sugars k3 d10 k3, PS) yielded a target mRNA inhibition of 39%. With GTATGAGCTTCAGACC (sugars k3 d10 k3, PS) the target mRNA inhibition was -6%. GTCAATAGTGTAAAAC (sugars k3 d10 k3, PS) showed a target mRNA inhibition of 33%. With GTCAATTTATAGACCC (sugars k3 d10 k3, PS) the target mRNA inhibition was 18%. In the case of GTCCCATAACTGATCT (sugars k3 d10 k3, PS), the target mRNA inhibition is reported as 35%. With GTCCCTGAAGGTGTTC (sugars k3 d10 k3, PS) the target mRNA inhibition was 23%. GTCCTTTTAGTAGCTT (sugars k3 d10 k3, PS) was tested, and the target mRNA inhibition was 50% and 72%. In the case of GTCTAGGATCCTCTAC (sugars k3 d10 k3, PS), the target mRNA inhibition is reported as 14%. With GTCTGAGGCAAACGAA (sugars k3 d10 k3, PS) the target mRNA inhibition was 29%. GTCTGATTATCCTGAT (sugars k3 d10 k3, PS) showed a target mRNA inhibition of 33%. GTGAGAACTGCTCTAG (sugars k3 d10 k3, PS) gave a target mRNA inhibition of 36%. In the case of GTGCCTGGAATTATTA (sugars k3 d10 k3, PS), the target mRNA inhibition is reported as 39%. Work on GTGGCAAAATGGCGGA (sugars k3 d10 k3, PS) yielded a target mRNA inhibition of 21%. Work on GTGTAAAACATTGCCT (sugars k3 d10 k3, PS) yielded a target mRNA inhibition of 0%. For GTGTGGTTGCCAAGCC (sugars k3 d10 k3, PS), the target mRNA inhibition was 43% and 37% and 50%. GTGTTATGCCTGGTTA (sugars k3 d10 k3, PS) was tested, and the target mRNA inhibition was 2%. GTTAAAAACTTAACGC (sugars k3 d10 k3, PS) was tested, and the target mRNA inhibition was 4%. GTTAAGACCATCCCAA (sugars k3 d10 k3, PS) gave a target mRNA inhibition of 19%. GTTAAGAGAAGCCCAG (sugars k3 d10 k3, PS) gave a target mRNA inhibition of 20%. Work on GTTAAGTTTTCAGCAG (sugars k3 d10 k3, PS) yielded a target mRNA inhibition of 17%. In the case of GTTACATGTTCCCACC (sugars k3 d10 k3, PS), the target mRNA inhibition is reported as 37%. GTTATGCCTGGTTAGG (sugars k3 d10 k3, PS) was tested, and the target mRNA inhibition was 16%. In the case of TAAAAAGGCTCGATGG (sugars k3 d10 k3, PS), the target mRNA inhibition is reported as 39%. With TAAACCTGTGGTGGTC (sugars k3 d10 k3, PS) the target mRNA inhibition was 30%. For TAAACTCACTGCAAGG (sugars k3 d10 k3, PS), the target mRNA inhibition was 14%. TAAAGAGTGTTCGCAG (sugars k3 d10 k3, PS) was tested, and the target mRNA inhibition was 51%. TAAAGTCTGATTAAGG (sugars k3 d10 k3, PS) was tested, and the target mRNA inhibition was 4%. Work on TAAAGTGTGATAGTTC (sugars k3 d10 k3, PS) yielded a target mRNA inhibition of 14%. In the case of TAAATTGGTTACCAAT (sugars k3 d10 k3, PS), the target mRNA inhibition is reported as 25%. TAACGAAGAGATACCT (sugars k3 d10 k3, PS) gave a target mRNA inhibition of 22%. Sequence TAAGACCATCCCAAAA (sugars k3 d10 k3, PS) has a target mRNA inhibition of 16%. In the case of TAAGATAGCAGCACAA (sugars k3 d10 k3, PS), the target mRNA inhibition is reported as -3%. Sequence TAAGATTGTAAGCATT (sugars k3 d10 k3, PS) has a target mRNA inhibition of 23%. For TAAGTTGGTAATTACT (sugars k3 d10 k3, PS), the target mRNA inhibition was 17%. TAATACCCTTCTGTTA (sugars k3 d10 k3, PS) was tested, and the target mRNA inhibition was 19%. TAATCATACTCCAGTC (sugars k3 d10 k3, PS) showed a target mRNA inhibition of -3%. Work on TAATGCACTGGTACAC (sugars k3 d10 k3, PS) yielded a target mRNA inhibition of -22%. Work on TACAACACCCGGAAAT (sugars k3 d10 k3, PS) yielded a target mRNA inhibition of 16%. TACACCTTGAGTCATT (sugars k3 d10 k3, PS) showed a target mRNA inhibition of 38%. In the case of TACACTCACTAGAACA (sugars k3 d10 k3, PS), the target mRNA inhibition is reported as 3%. Work on TACATCAAGGATGTAT (sugars k3 d10 k3, PS) yielded a target mRNA inhibition of 2%. With TACCACCTTTTGAAGG (sugars k3 d10 k3, PS) the target mRNA inhibition was 13%. TACCACTCCCAATTAA (sugars k3 d10 k3, PS) gave a target mRNA inhibition of 12%. TACCACTCTAAGATTG (sugars k3 d10 k3, PS) gave a target mRNA inhibition of 5%. Work on TACCATAAGTAAGTTC (sugars k3 d10 k3, PS) yielded a target mRNA inhibition of 4%. In the case of TACCGTTTTTCAGCTT (sugars k3 d10 k3, PS), the target mRNA inhibition is reported as -31%. In the case of TACCTTGAAACCGATT (sugars k3 d10 k3, PS), the target mRNA inhibition is reported as 36%. TACTCTGATCATAATC (sugars k3 d10 k3, PS) showed a target mRNA inhibition of 17%. TACTGAAAACTCCCCC (sugars k3 d10 k3, PS) gave a target mRNA inhibition of 22%. For TACTTGTCTTAGCTTG (sugars k3 d10 k3, PS), the target mRNA inhibition was 51%. With TACTTTCCATTACGCA (sugars k3 d10 k3, PS) the target mRNA inhibition was 16%. TAGCTTCCTTCACCAA (sugars k3 d10 k3, PS) gave a target mRNA inhibition of -1%. With TAGGGCTTCTCAAAAC (sugars k3 d10 k3, PS) the target mRNA inhibition was 4%.
